Test system: library of 8,380 IKZF3 degrons (ZF-eGFP/mCherry reporter) in Jurkat cells
Test: Pooled library screen (FACS, NGS, limma voom LogFC of positive vs negative read counts)
Type: cell-based, human
Protocol: A library of 8,380 IKZF3 degrons was cloned into pLVX-Sprout to create the eGFP/mCherry protein degradation reporter plasmid pool. A lentivirus pool was then generated using the Lenti-X lentiviral vector production method.
Jurkat cells were transduced at a multiplicity of infection of <0.3 with the lentivirus vector library in order to maximise the number of cells with a single integration. Transductions were carried out in 6 well TC-treated cell culture dishes (Falcon) with 3×10^6 cells per well. Cells were incubated for 2 days at 37° C. and 5% CO2 before the supernatant was removed and replaced with fresh media. 6 days post-transduction, mCherry+ cells were isolated via FACS using the FACS Aria Fusion (BD) in a buffer containing PBS (Gibco), 2 mM EDTA (Gibco), 25 mM HEPES (Sigma) and 1% BSA (Sigma). 8 days later, cells were treated with DMSO or a thalidomide analog for 18 hours at 37° C. and 5% CO2. mCherry+GFPlow and NOT(mCherry+GFPlow) cells were sorted by FACS using the FACS Aria Fusion (BD). DMSO treated cells were used to set the mCherry+GFPlow gate and dead cells were excluded from sorting by staining cells with 1 μg/mL DAPI (ThermoFisher). gDNA was isolated using the Maxwell RSC 48 (Promega). gDNA from cells that were unsorted and untreated were also isolated to determine the library representation on the day of compound treatment. Throughout the screen >600× coverage of the library was maintained. 3 biological replicates were carried out with a new transduction taking place each time.
A two-step PCR was used where the first PCR (PCR1) amplified the integrated degron sequence from gDNA and the second PCR (PCR2) added Illumina adaptors and barcodes to permit multiplexing. See Supp F for PCR1 and PCR2 primers. Q5 Hot Start High-Fidelity 2× Master Mix (New England Biolabs) was used for both PCRs. Sufficient gDNA was amplified in PCR1 in order to maintain >600× coverage and amplicons were purified using solid phase reversible immobilization (SPRI) beads (Beckman Coulter). Purified PCR1 products were analysed on the Tapestation 4200 (Agilent) to confirm purity prior to proceeding to PCR2. Sufficient PCR1 product was amplified in PCR2 in order to maintain >600× coverage and amplicons were run on a 2% agarose TAE gel. Target bands were excised and purified using the NucleoSpin Gel and PCR Clean-up Kit (Machery Nagel). Amplicons were analysed on the Tapestation 4200 and quantified using Qubit dsDNA HS kit (ThermoFisher). PCR products were pooled and sequenced as paired-reads on the NovaSeq (Illumina) using a SP2 200 cycles kit (Illumina).
Count distributions, percentage of read mapping, library coverage and replicate correlation per sample were assessed for QC purposes.
To carry out the library screen, we used the same plasmid construct as in our earlier flow cytometry assays, but pooling all 8,380 mutants together into one Jurkat population, ensuring a copy number of one plasmid per cell (FIG. 4B). […] These GFP-negative cells were then separated from the remaining GFP-positive population using fluorescence activated cell sorting (FACS). These two populations were then sequenced and the relative abundance of every mutant in both populations compared to provide a log FC value for each mutant sequence. This value indicated how frequently a sequence is observed in the GFP-negative population relative to the GFP-positive population, and therefore how effective a degron it is for that particular IMID compound.

## CC(C)(C)c1ccc2c(c1)C(=O)N(C1CCC(=O)NC1=O)C2=O (stereo not shown) [A63, 5-(tert-butyl)-2-(2,6-dioxopiperidin-3-yl)isoindoline-1,3-dione]
WT ZF sequence
  position of the WT sequence in the volcano plot of the library screen: far away from the ‘hits’ region
Mutant degron: Degron-ID 214, SEQ ID NO 1763, 46F_47A_49P_50Q_52G_53A_54R_55F_67L
  A63_logFC (Estimated LogFC Coefficient, positive vs negative read counts): 2.012
Mutant degron: Degron-ID 1093, SEQ ID NO 1762, 46F 47F_49N_50I_52G_53A 54Q 55F 67L
  A63_logFC (Estimated LogFC Coefficient, positive vs negative read counts): 2.015
Mutant degron: Degron-ID 1448, SEQ ID NO 1767, 46F_47H_49D_50I_52G_53A_54K_55F_67L
  A63_logFC (Estimated LogFC Coefficient, positive vs negative read counts): 2.005
Mutant degron: Degron-ID 1792, SEQ ID NO 1752, 46F 47I 49E_50V_52G_53A 54P 55F 67L
  A63_logFC (Estimated LogFC Coefficient, positive vs negative read counts): 2.03
Mutant degron: Degron-ID 2032, SEQ ID NO 1761, 46F_47K_49E_50V_52G_53A_54P 55F 67L
  A63_logFC (Estimated LogFC Coefficient, positive vs negative read counts): 2.016
Mutant degron: Degron-ID 2220, SEQ ID NO 1759, 46F_47L_49E_50I_52G_53A_54A_55F_67L
  A63_logFC (Estimated LogFC Coefficient, positive vs negative read counts): 2.022
Mutant degron: Degron-ID 2352, SEQ ID NO 1758, 46F_47L_49P_50I_52G_53A 54P 55F_67L
  A63_logFC (Estimated LogFC Coefficient, positive vs negative read counts): 2.022
Mutant degron: Degron-ID 2873, SEQ ID NO 1765, 46F_47N_49P_50V_52G_53A_54Q_55F_67L
  A63_logFC (Estimated LogFC Coefficient, positive vs negative read counts): 2.01
Mutant degron: Degron-ID 2874, SEQ ID NO 1756, 46F_47N_49P_50V_52G_53A_54R_55F_67L
  A63_logFC (Estimated LogFC Coefficient, positive vs negative read counts): 2.023
Mutant degron: Degron-ID 3479, SEQ ID NO 1750, 46F_47S_49E_50V_52G_53A_54Y_55F_67L
  A63_logFC (Estimated LogFC Coefficient, positive vs negative read counts): 2.034
Mutant degron: Degron-ID 3732, SEQ ID NO 1751, 46F 47T 49N 50I 52G 53A 54P 55F 67L
  A63_logFC (Estimated LogFC Coefficient, positive vs negative read counts): 2.034
Mutant degron: Degron-ID 4130, SEQ ID NO 1769, 46F_47W_49D_50V_52G_53A_54M_55F_67L
  A63_logFC (Estimated LogFC Coefficient, positive vs negative read counts): 2.004
Mutant degron: Degron-ID 4210, SEQ ID NO 1753, 46F_47W_49N_50I_52G_53A_54M_55F 67L
  A63_logFC (Estimated LogFC Coefficient, positive vs negative read counts): 2.029
Mutant degron: Degron-ID 4213, SEQ ID NO 1757, 46F_47W_49N_50I_52G_53A_54Q_55F_67L
  A63_logFC (Estimated LogFC Coefficient, positive vs negative read counts): 2.023
Mutant degron: Degron-ID 6432, SEQ ID NO 1764, 46F_47W_49P_50I_52G_53R_54P_55F_67L
  A63_logFC (Estimated LogFC Coefficient, positive vs negative read counts): 2.011
Mutant degron: Degron-ID 6552, SEQ ID NO 1755, 46L 47F_49P_50I_52G_53F_54P 55C 67L
  A63_logFC (Estimated LogFC Coefficient, positive vs negative read counts): 2.023
Mutant degron: Degron-ID 6583, SEQ ID NO 1754, 46L_47H_49P_50I_52G_53F_54E_55C_67L
  A63_logFC (Estimated LogFC Coefficient, positive vs negative read counts): 2.028
Mutant degron: Degron-ID 7601, SEQ ID NO 1760, 46L_47A_49E_50I_52G_53F_54C_55C_67L
  A63_logFC (Estimated LogFC Coefficient, positive vs negative read counts): 2.006
Mutant degron: Degron-ID 7628, SEQ ID NO 1770, 46L_47C_49E_50I_52G_53F_54K_55C_67L
  A63_logFC (Estimated LogFC Coefficient, positive vs negative read counts): 2.001
Mutant degron: Degron-ID 7865, SEQ ID NO 1760, 46L 47R_49E_50I_52G_53F_54G_55C_67L
  A63_logFC (Estimated LogFC Coefficient, positive vs negative read counts): 2.019
Mutant degron: Degron-ID 7971, SEQ ID NO 1768, 46L_47Y_49E_50I_52G_53F_54N_55C_67L
  A63_logFC (Estimated LogFC Coefficient, positive vs negative read counts): 2.005

From patent US20260284208A1, “SYSTEM” (Oxford University Innovation Limited, priority 2023, published 2026)
